In paper PMC12586182 (Frontiers in Oncology, 2025):

Legend:
Test in all cases: Kinase panel profiling at 1 µmol/L (mobility shift assay, Carna)
ACK = target: T1, ACK (Homo sapiens, UniProt Q07912); type: biochemical; settings: 1 µmol/L of BTK inhibitor
T1 construct: purchased Carna Biosciences

JAK3 = target: T2, JAK3 (Homo sapiens, UniProt P52333); type: biochemical; settings: 1 µmol/L of BTK inhibitor
T2 construct: purchased Carna Biosciences
T2 sequence (P52333 1-1124): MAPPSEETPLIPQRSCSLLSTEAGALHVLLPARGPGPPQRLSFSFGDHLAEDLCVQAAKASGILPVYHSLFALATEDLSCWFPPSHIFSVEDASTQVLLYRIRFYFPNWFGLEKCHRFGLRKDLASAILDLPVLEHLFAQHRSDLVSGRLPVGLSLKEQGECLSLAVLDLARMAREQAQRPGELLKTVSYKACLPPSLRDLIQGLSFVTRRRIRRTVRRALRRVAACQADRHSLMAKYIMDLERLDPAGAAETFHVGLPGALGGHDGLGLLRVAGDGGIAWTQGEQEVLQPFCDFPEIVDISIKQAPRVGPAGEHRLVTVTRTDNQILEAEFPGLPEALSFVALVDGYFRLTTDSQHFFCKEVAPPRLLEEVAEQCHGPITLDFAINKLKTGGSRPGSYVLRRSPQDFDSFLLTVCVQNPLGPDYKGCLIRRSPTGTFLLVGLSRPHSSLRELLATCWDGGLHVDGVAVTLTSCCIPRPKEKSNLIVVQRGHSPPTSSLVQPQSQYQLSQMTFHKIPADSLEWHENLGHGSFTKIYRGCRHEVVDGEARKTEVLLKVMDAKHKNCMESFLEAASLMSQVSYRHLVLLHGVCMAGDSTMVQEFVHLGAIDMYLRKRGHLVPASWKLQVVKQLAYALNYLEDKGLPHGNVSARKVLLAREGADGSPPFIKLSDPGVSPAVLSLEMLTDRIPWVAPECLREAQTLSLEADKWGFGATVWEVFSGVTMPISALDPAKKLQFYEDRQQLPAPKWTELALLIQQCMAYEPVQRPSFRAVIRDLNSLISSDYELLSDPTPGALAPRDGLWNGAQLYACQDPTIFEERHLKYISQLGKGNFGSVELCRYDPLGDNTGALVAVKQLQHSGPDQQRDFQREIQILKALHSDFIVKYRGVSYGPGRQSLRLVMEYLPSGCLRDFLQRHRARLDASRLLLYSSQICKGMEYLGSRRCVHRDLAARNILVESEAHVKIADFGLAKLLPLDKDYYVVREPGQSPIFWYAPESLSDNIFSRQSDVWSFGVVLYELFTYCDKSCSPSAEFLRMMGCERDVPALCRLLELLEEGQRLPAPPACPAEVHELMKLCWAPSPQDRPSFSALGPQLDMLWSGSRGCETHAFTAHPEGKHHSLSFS

PDGFRβ = target: T3, PDGFRβ (Homo sapiens, UniProt P09619); type: biochemical; settings: 1 µmol/L of BTK inhibitor
T3 construct: purchased Carna Biosciences

RON = target: T4, RON (Homo sapiens, UniProt Q04912); type: biochemical; settings: 1 µmol/L of BTK inhibitor
T4 construct: purchased Carna Biosciences

CaMK2γ = target: T5, CaMK2γ (Homo sapiens, UniProt Q13555); type: biochemical; settings: 1 µmol/L of BTK inhibitor
T5 construct: purchased Carna Biosciences

CDC7/ASK = target: T6, CDC7/ASK (Homo sapiens, UniProt O00311); type: biochemical; settings: 1 µmol/L of BTK inhibitor
T6 construct: purchased Carna Biosciences

HIPK4 = target: T7, HIPK4 (Homo sapiens, UniProt Q8NE63); type: biochemical; settings: 1 µmol/L of BTK inhibitor
T7 construct: purchased Carna Biosciences
T7 sequence (Q8NE63 1-616): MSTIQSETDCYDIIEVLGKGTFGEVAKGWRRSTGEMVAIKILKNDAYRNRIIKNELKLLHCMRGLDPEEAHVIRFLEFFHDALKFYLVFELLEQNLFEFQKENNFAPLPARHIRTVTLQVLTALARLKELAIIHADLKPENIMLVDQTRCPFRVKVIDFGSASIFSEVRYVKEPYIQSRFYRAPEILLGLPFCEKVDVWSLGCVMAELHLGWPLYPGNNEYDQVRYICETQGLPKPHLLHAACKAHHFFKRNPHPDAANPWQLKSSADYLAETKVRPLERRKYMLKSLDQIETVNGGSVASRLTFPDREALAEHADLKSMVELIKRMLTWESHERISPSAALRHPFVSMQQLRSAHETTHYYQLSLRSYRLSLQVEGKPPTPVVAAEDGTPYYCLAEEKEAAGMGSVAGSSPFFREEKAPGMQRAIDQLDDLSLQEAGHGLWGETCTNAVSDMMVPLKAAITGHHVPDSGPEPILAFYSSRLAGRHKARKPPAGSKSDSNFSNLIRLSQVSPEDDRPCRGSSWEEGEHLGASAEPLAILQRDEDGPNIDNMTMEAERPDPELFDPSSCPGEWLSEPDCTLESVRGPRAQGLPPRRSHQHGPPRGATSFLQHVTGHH

MRCKβ = target: T8, MRCKβ (Homo sapiens, UniProt Q9Y5S2); type: biochemical; settings: 1 µmol/L of BTK inhibitor
T8 construct: purchased Carna Biosciences

MSK1 = target: T9, MSK1 (Homo sapiens, UniProt O75582); type: biochemical; settings: 1 µmol/L of BTK inhibitor
T9 construct: purchased Carna Biosciences

NIM1K = target: T10, NIM1K (Homo sapiens, UniProt Q8IY84); type: biochemical; settings: 1 µmol/L of BTK inhibitor
T10 construct: purchased Carna Biosciences

p38δ = target: T11, p38δ (Homo sapiens, UniProt O15264); type: biochemical; settings: 1 µmol/L of BTK inhibitor
T11 construct: purchased Carna Biosciences
T11 sequence (O15264 1-365): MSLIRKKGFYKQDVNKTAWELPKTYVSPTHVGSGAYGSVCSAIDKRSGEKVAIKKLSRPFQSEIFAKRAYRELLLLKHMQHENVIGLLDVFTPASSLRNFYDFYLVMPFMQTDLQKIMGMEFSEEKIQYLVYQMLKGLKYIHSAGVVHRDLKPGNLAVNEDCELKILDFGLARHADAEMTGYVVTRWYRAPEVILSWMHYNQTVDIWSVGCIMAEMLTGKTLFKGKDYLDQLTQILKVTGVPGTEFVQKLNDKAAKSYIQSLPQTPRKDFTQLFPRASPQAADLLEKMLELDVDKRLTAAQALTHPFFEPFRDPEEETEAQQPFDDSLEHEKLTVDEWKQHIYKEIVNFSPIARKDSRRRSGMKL

PAK1 = target: T12, PAK1 (Homo sapiens, UniProt Q13153); type: biochemical; settings: 1 µmol/L of BTK inhibitor
T12 construct: purchased Carna Biosciences

PKCβ2 = target: T13, PKCβ2 (Homo sapiens, UniProt P05771); type: biochemical; settings: 1 µmol/L of BTK inhibitor
T13 construct: purchased Carna Biosciences

RSK1 = target: T14, RSK1 (Homo sapiens, UniProt Q15418); type: biochemical; settings: 1 µmol/L of BTK inhibitor
T14 construct: purchased Carna Biosciences

Aurora B = Aurora B (Homo sapiens, UniProt Q96GD4); settings: for Percentage inhibition of kinase enzyme activity: AurB, 1 µmol/L of BTK inhibitor
Sequence of Aurora B (Q96GD4 whole entry): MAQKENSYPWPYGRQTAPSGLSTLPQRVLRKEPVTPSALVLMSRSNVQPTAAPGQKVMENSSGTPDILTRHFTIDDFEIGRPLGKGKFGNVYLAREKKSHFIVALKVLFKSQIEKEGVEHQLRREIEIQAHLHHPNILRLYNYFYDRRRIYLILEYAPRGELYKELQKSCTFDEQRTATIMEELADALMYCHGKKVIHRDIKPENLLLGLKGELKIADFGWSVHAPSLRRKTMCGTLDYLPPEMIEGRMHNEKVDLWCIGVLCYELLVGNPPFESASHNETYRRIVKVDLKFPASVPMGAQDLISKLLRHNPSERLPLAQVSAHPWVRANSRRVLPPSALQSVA
Sequence of Aurora B (Q9NQS7 803-916 partner limits assumed): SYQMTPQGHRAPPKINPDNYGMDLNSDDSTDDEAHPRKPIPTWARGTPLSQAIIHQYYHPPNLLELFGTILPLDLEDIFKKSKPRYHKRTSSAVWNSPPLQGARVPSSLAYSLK

T8 sequence (Q9Y5S2 whole entry): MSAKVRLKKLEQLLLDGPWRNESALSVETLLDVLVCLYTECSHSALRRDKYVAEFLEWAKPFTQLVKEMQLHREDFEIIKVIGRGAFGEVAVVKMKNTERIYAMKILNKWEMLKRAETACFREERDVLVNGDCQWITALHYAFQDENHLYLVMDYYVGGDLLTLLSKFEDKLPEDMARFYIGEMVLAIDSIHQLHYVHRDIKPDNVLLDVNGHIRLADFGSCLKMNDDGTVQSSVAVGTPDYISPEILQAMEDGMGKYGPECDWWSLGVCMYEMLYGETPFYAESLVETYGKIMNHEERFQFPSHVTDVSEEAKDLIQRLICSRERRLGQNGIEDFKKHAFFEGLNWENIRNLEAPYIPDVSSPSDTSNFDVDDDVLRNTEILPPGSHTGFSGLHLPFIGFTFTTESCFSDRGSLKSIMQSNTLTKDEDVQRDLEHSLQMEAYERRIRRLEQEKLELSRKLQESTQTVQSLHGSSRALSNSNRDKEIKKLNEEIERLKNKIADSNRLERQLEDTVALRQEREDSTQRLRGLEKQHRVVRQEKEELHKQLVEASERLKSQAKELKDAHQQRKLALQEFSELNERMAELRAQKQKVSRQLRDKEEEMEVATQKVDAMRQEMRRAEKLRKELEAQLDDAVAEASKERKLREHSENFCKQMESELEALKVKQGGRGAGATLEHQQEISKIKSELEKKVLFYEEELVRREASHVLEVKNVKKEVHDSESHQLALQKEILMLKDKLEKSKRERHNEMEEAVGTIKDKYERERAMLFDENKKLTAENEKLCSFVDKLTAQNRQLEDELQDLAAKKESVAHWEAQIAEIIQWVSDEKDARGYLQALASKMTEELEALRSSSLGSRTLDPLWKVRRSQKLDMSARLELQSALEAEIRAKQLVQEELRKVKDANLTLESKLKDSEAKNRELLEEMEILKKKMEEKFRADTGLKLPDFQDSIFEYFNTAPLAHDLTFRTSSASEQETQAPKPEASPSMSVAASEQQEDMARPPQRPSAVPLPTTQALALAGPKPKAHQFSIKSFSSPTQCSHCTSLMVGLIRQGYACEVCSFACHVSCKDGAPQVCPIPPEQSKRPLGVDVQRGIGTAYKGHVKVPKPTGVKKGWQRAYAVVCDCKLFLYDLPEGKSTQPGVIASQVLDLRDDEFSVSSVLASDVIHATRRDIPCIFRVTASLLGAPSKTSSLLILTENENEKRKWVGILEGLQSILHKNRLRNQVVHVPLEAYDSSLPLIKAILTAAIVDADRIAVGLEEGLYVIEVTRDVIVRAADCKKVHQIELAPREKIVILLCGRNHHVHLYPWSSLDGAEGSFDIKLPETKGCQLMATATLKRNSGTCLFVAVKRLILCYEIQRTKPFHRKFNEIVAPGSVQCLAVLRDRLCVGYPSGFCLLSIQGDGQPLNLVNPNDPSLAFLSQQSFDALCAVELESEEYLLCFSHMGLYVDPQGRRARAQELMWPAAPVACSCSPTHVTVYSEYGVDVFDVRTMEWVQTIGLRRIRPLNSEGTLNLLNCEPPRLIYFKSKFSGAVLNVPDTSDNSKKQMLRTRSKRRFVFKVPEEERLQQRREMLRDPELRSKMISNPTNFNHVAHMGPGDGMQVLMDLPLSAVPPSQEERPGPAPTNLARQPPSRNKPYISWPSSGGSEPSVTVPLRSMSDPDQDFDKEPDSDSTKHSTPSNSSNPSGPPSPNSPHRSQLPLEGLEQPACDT
T14 sequence (Q15418 whole entry): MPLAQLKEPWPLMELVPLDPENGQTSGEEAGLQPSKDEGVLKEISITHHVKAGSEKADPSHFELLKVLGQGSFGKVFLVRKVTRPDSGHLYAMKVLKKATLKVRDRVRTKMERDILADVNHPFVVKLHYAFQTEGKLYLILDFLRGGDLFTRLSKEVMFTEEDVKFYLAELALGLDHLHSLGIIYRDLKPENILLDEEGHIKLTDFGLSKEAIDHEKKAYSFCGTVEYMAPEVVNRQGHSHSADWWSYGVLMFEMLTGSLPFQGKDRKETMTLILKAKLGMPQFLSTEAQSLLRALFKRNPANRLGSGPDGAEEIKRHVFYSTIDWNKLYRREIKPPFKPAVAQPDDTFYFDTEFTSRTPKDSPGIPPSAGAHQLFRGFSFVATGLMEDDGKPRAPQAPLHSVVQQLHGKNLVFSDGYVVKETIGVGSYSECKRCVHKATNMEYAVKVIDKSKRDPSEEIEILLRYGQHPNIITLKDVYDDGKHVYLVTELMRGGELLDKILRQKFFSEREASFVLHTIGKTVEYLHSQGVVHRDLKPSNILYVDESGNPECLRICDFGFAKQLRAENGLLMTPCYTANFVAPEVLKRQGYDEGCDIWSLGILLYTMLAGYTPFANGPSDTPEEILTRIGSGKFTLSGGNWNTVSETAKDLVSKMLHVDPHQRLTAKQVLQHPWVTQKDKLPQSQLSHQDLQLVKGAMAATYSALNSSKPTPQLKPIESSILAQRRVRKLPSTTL
T4 sequence (Q04912 25-1400): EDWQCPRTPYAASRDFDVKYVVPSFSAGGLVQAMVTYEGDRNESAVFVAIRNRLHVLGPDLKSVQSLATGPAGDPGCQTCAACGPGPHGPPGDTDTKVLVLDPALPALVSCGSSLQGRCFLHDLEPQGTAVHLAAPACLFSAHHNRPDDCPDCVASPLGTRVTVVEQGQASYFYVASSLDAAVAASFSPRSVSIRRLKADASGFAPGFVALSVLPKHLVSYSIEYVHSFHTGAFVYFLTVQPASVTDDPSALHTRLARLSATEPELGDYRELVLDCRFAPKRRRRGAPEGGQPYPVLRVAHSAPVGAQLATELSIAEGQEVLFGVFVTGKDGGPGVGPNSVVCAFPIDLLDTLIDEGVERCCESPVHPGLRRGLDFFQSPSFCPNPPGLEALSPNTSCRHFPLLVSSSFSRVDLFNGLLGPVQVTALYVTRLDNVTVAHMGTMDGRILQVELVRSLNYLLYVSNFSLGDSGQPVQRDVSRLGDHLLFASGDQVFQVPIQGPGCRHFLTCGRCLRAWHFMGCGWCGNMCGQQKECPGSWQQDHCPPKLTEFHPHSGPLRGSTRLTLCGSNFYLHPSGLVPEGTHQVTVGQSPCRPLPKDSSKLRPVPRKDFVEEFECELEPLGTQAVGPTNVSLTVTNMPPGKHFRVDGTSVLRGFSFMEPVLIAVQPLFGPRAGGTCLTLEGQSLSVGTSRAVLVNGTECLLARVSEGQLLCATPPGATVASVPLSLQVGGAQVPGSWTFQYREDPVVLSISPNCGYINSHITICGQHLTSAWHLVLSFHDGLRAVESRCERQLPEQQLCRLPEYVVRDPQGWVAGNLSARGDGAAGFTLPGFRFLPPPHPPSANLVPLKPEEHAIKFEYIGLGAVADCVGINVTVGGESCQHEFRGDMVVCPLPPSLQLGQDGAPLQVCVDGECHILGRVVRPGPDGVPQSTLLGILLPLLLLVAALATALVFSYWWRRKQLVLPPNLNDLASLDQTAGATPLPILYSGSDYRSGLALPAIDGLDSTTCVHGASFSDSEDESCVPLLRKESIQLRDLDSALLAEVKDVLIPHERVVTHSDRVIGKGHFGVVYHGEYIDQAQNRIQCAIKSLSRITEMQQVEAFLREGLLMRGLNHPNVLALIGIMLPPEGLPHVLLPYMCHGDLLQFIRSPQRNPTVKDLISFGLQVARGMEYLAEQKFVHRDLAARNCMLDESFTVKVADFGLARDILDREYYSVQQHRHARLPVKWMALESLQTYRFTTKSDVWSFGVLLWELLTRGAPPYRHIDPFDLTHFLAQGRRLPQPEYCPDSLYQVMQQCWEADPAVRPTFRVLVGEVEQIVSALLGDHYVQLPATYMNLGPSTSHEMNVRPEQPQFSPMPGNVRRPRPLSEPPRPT
T10 sequence (Q8IY84 whole entry): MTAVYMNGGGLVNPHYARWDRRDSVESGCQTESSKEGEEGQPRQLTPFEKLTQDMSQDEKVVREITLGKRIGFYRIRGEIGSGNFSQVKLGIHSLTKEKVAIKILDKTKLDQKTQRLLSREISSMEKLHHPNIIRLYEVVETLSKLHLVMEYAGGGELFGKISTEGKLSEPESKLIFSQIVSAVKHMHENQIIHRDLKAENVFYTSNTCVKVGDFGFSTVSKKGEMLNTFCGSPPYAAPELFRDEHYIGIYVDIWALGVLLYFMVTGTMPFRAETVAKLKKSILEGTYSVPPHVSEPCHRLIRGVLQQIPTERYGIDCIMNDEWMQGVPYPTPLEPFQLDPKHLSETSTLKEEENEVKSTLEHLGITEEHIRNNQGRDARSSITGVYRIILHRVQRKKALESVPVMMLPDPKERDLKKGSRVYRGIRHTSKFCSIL

Row | Structure (SMILES) | Percentage inhibition of kinase enzyme activity (ACK) [%] | Percentage inhibition of kinase enzyme activity (JAK3) [%] | Percentage inhibition of kinase enzyme activity (PDGFRβ) [%] | Percentage inhibition of kinase enzyme activity (RON) [%] | Percentage inhibition of kinase enzyme activity (CaMK2γ) [%] | Percentage inhibition of kinase enzyme activity (CDC7/ASK) [%] | Percentage inhibition of kinase enzyme activity (HIPK4) [%] | Percentage inhibition of kinase enzyme activity (MRCKβ) [%] | Percentage inhibition of kinase enzyme activity (MSK1) [%] | Percentage inhibition of kinase enzyme activity (NIM1K) [%] | Percentage inhibition of kinase enzyme activity (p38δ) [%] | Percentage inhibition of kinase enzyme activity (PAK1) [%] | Percentage inhibition of kinase enzyme activity (PKCβ2) [%] | Percentage inhibition of kinase enzyme activity (RSK1) [%] | Percentage inhibition of kinase enzyme activity (Aurora B) [%] | inhibition at 1 µM (Aurora B; read-out: Inhibition of Aurora B) [%]
1 | CC#CC(=O)N1CCC[C@H]1c1nc(-c2ccc(C(=O)Nc3ccccn3)cc2)c2c(N)nccn12 [acalabrutinib] | 14.06 | -1.00 | 5.36 | 7.68 | -1.85 | -1.64 | -9.54 | -15.91 | -7.68 | -7.33 | -1.74 | -0.37 | -12.04 | 3.57 | 10.86 | –
2 | C=CC(=O)N1CCC([C@@H]2CCNc3c(C(N)=O)c(-c4ccc(Oc5ccccc5)cc4)nn32)CC1 [zanubrutinib] | – | 10.83 | 5.37 | – | – | – | – | – | 0.57 | – | – | – | -1.66 | – | – | –
3 | O=C(c1ccc(Oc2ccccc2)cc1Cl)c1c[nH]c2ncnc(N[C@@H]3CC[C@@H](CO)OC3)c12 [nemtabrutinib] | 98.62 | 97.48 | 76.83 | 33.63 | 1.06 | -1.26 | 13.77 | -5.25 | 11.30 | -2.21 | -5.79 | 79.33 | -1.79 | 17.84 | 57.52 | –
4 | COc1ccc(F)cc1C(=O)NCc1ccc(-c2nn([C@@H](C)C(F)(F)F)c(N)c2C(N)=O)cc1 [pirtobrutinib] | 13.05 | -1.25 | 5.87 | 6.55 | -1.71 | -5.67 | 2.58 | 0.61 | 4.32 | -1.08 | -1.92 | 5.73 | -8.67 | 5.53 | 88.69 | > 75
5 | C=CC(=O)N1CCC[C@@H](n2nc(-c3ccc(Oc4ccccc4)cc3)c3c(N)ncnc32)C1 [ibrutinib] | 72.74 | 90.92 | 54.81 | 6.98 | -1.83 | -0.99 | 2.60 | -7.55 | -1.18 | -2.33 | -3.68 | 6.57 | 1.78 | 5.47 | -1.10 | –
